Source: PMC4613240, “A Series of New Ligustrazine-Triterpenes Derivatives as Anti-Tumor Agents: Design, Synthesis, and Biological Evaluation” (International Journal of Molecular Sciences, 2015)

Experiments:
[1] = test system: Bel-7402 (human hepatocellular carcinoma); assay: MTT cytotoxicity assay, Bel-7402; format: cell-based; conditions: maximal tested concentration 20.0 μM
Experimental: (§1) The cytotoxicity of ligustrazine-triterpenes derivatives was evaluated on five tumor cell lines (Bel-7402, HepG2, HT-29, Hela, and MCF-7) using the standard MTT assay. In the study, the antineoplastic drug cisplatin (DDP) was selected as the positive control. The MDCK cell line was used to test the toxicity of the ligustrazine-triterpenes derivatives and DDP.
(§2) The cell lines Bel-7402 (human hepatocellular carcinoma), HepG2 (human hepatocellular carcinoma), HT-29 (human colon carcinoma), Hela (human cervical cancer), MCF-7 (human breast cancer) were included in this study. All these cell lines were provided by the Chinese Academy of Medical Sciences & Peking Union Medical College. Cultures were maintained as monolayers in RPMI 1640 supplemented with 10% (v/v) heat inactivated fetal bovine serum and 1% (v/v) enicillin/streptomycin (Thermo Technologies, New York, NY, USA) at 37 °C in a humidified atmosphere with 5% CO2. The ligustrazine derivatives under study were dissolved in DMSO (Sigma, St. Louis, MO, USA) and added at required concentrations to the cell culture. Cells incubated without the preparations served as the control.
(§3) The cytotoxicity of the compounds was evaluated on five cancer cell lines (Bel-7402, HepG2, HT-29, Hela, MCF-7) by the standard MTT assay. In short, exponentially growing cells were seeded into 96-well plates at a density 10^4 cells/mL. The plates were incubated at 37 °C in a humidified 5% CO2 atmosphere. Cells were allowed to adhere to the surface for 24 h and then treated with serial dilutions of the compounds for 72 h. Later, aliquots of [3-(4,5-dimethylthiazol-2-yl)-2,5-diphenyltetrazolium bromide] (MTT) solution (20 μL, 5 mg/mL) were added to each well and the incubation was continued for an additional 4 h. Then the supernatant medium was thrown away. The dark blue formazan crystals formed within the healthy cells were solubilized with DMSO (150 μL) and the absorbance was measured in a plate reader (BIORAD 550 spectrophotometer, Bio-rad Life Science Development Ltd., Beijing, China) at 490 nm. Wells containing no drugs were used as control group. The IC50 values were defined as the concentration of compounds that produced a 50% reduction of surviving cells and calculated using Logit-method. Tumor cell growth inhibitory rate was calculated in the following Equation (1): % inhibition = (1 − Sample group OD/Control group OD) × 100% (1)

[2] = test system: HT-29 (human colon carcinoma); assay: MTT cytotoxicity assay, HT-29; format: cell-based; conditions: maximal tested concentration 20.0 μM
Experimental: as §1, §2, §3

[3] = test system: HepG2 (human hepatocellular carcinoma); assay: MTT cytotoxicity assay, HepG2; format: cell-based; conditions: for IC50: 72 h, maximal tested concentration 20.0 μM
Experimental: as §1, §2, §3

[4] = test system: MCF-7 (human breast cancer); assay: MTT cytotoxicity assay, MCF-7; format: cell-based; conditions: maximal tested concentration 20.0 μM
Experimental: as §1, §2, §3

[5] = test system: Hela (human cervical cancer); assay: MTT cytotoxicity assay, Hela; format: cell-based; conditions: 72 h, maximal tested concentration 20.0 μM
Experimental: as §1, §2, §3

HepG2 cells = assay: Morphological observation using DAPI staining; format: cell-based, human; conditions: HepG2, 2, 4, 8 μM for 72 h
Experimental: DAPI staining was used to evaluate apoptosis associated morphological changes in this assay. HepG2 cells were seeded in the six well plates at a density of 4 × 10^3 cells/well and incubated overnight. Then the cells were incubated in the presence of 4a at various concentrations (2, 4, 8 μΜ) at 37 °C and 5% CO2 for 72 h. Cells were then washed with PBS, fixed with 4% paraformaldehyde followed by 70% ethanol. Finally, fixed cells were stained with DAPI (DAPI, Molecular Probes/Invitrogen Life Technologies, Carlsbad, CA, USA) at the concentration of 1 mg/mL and incubated for 1 min in dark. The cell morphological changes were observed by fluorescent microscopy and images were captured by digital camera.

`C=C(C)[C@@H]1CC[C@]2(C(=O)OCc3nc(C)c(C)nc3C)CC[C@]3(C)C(CCC4[C@@]5(C)CC[C@H](O)C(C)(C)C5CC[C@]43C)C12` (stereo partly drawn) [Compound 4a, 3β-Hydroxy-lup-20(29)-ene-28-oic acid-3,5,6-trimethylpyrazin-2-methyl ester] showed an IC50 ([1]; 72 h) of 4.19 µM, an IC50 ([1]; Homo sapiens, Bel-7402, 72 h) of under 5.23 µM and an IC50 ([2]; 72 h) of 5.23 µM. The IC50 ([2]; Homo sapiens, HT-29, 72 h) was under 5.23 µM, the IC50 [3] was 4.48 µM and the inhibition at 10 µM ([3]; Homo sapiens, HepG2, 10 μM, read-out: inhibition rate against HepG2) was 99.9%. For the same compound, the IC50 ([3]; Homo sapiens, HepG2, 72 h) was under 5.23 µM, the IC50 ([4]; 72 h) was 4.23 µM and the IC50 ([4]; Homo sapiens, MCF7, 72 h) was under 5.23 µM. The IC50 [5] was 4.34 µM, the IC50 ([5]; Homo sapiens, HeLa) was under 5.23 µM and the “cell morphology after DAPI staining” value (HepG2 cells) was “displayed morphological features of apoptosis”.
